From patent US12552771B2, “Carboxylic acid containing azetidinyl compounds for the treatment of neurodegenerative diseases” (Celgene Corporation, priority 2021, dated 2026) come the findings set out here.

As a reminder, the EC50 is the concentration at which the effect is half-maximal.

The target of this experiment is T1, S1P5 receptors (Homo sapiens, UniProt Q9H228).
T1 construct: expressed in transfected cells; host or cells: CHO cells (membranes)
T1 sequence (Q9H228 whole entry): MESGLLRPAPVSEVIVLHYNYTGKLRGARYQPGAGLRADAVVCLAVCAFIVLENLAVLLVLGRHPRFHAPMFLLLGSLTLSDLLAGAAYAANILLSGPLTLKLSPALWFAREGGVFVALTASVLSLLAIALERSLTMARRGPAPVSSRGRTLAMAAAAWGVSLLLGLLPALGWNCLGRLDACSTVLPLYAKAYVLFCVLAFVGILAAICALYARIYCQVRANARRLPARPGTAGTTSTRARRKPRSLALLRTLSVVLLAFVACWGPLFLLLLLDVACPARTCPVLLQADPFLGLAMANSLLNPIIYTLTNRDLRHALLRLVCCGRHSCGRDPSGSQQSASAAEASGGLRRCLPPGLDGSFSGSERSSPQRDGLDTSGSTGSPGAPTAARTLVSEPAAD
Kind of experiment: [35S]-GTPγS binding assay with CHO-S1P5 receptor membranes. Format: biochemical. Particulars: membranes of CHO cells expressing recombinant S1P5 receptors; measure of S1P5 agonism. How it is done:
CHO cells expressing recombinant S1P5 receptors were cultured in 500 cm^2 culture trays and, once confluent, rinsed and detached with cell-lifting buffer (10 mM HEPES, 154 mM NaCl, 6.85 mM EDTA, pH 7.4). Cells were then pelleted by centrifugation, resuspended, and homogenized in membrane preparation buffer (10 mM HEPES and 10 mM EDTA, pH 7.4) using a Polytron PT 1200E homogenizer (Kinematica, Luzern, Switzerland). Cellular proteins were pelleted by centrifugation at 48,000×g at 4° C. for 30 minutes. The resulting supernatant was discarded, and the pellet was re-suspended again in membrane preparation buffer, homogenized for a second time, and then centrifuged again as described above. The final cellular protein pellet was suspended in ice cold resuspension buffer (10 mM HEPES and 0.1 mM EDTA, pH 7.4), divided into aliquots, and stored at −80° C. until use.
Functional binding assays for [^35]-GTPγS were performed in 96-well non-binding surface plates with a final volume of 200 μL. The test compounds were serially diluted in DMSO and added to assay plates using a Tecan D300E digital printer with a total volume of […]. The control sphingosine-1-phosphate (SiP) was prepared separately by preparing a 400 μM stock solution from a 100 nmol pellet of SiP in 10 mM Na2CO3 with 2% […]. The serial dilution of SiP was done using complete assay buffer (20 mM HEPES, 10 mM MgCl2, 100 mM NaCl, 1 mM EDTA, 0.1% fatty acid free bovine serum albumin (BSA), and 30 μg/mL saponin, pH 7.4) and transferred to wells already containing 0.4 μL DMSO. All the wells were then loaded to a total volume of 40 μL of complete assay buffer, except the non-specific binding (NSB) wells. For NSB wells, 40 μL/well of 50 μM GTPγS (Sigma Aldrich, cat #G8634, St. Louis, MO) was added to wells containing 0.4 μL of DMSO. The assay was started by the addition of 120 μL/well of CHO-S1P receptor membrane solution containing 40 μg/mL of membrane protein, 16.67 μM guanosine diphosphate (GDP; Sigma Aldrich, cat #G7127, St. Louis, MO), and 2.5 mg/mL of WGA PVT SPA beads in complete buffer. Assay plates were then sealed and incubated at room temperature with gentle agitation for 30 minutes. Next, 40 μL/well of 1 nM of [^35]-GTPγS (PerkinElmer, cat #NEG030X250UC, Waltham, MA) in basic assay buffer (20 mM HEPES, 10 mM MgCl2, 100 mM NaCl, and 1 mM EDTA, pH7.4) was added to the assay plates to yield a final concentration of 200 pM and the plates were further incubated for 40 minutes at room temperature with gentle agitation. The assay was terminated by centrifugation of the plates at 1000 rpm for 3 minutes using an Eppendorf 5810R centrifuge (Eppendorf, Hamburg, Germany) and G protein bound radioactivity was quantitated using a MicroBeta2 microplate scintillation counter (PerkinElmer, Waltham, MA). As G protein bound radioactivity directly correlates to receptor activation and coupling to the G protein, this assay is a measure of S1P5 agonism.
In general terms: Binding of GTPγS marks nucleotide exchange on a G protein.
With `Cc1cc(C2CN(c3c(Cl)cccc3Cl)C2)cc2c1C(N1CCC(C(=O)O)CC1)CC2` (racemic) [Compound 5, 1-(5-(1-(2,6-dichlorophenyl)azetidin-3-yl)-7-methyl-2,3-dihydro-1H-inden-1-yl)piperidine-4-carboxylic acid], the half-maximal effective concentration (EC50) is at most 10 nM. Consider `O=C(O)C1CCN(C2CCc3cc(C4CN(c5c(Cl)cccc5Cl)C4)cc(F)c32)CC1` (racemic) [Compound 6, 1-(5-(1-(2,6-dichlorophenyl)azetidin-3-yl)-7-fluoro-2,3-dihydro-1H-inden-1-yl)piperidine-4-carboxylic acid], for which the EC50 was at most 10 nM. Then `O=C(O)C1CCN(C2CCc3cc(C4CN(c5c(Cl)cccc5Cl)C4)ccc32)CC1` (single isomer, unassigned) [Compound 1a, 1-(5-(1-(2,6-dichlorophenyl)azetidin-3-yl)-2,3-dihydro-1H-inden-1-yl)piperidine-4-carboxylic acid], with at most 10 nM; and `O=C(O)C1CCN(C2CCc3cc(C4CN(c5c(Cl)cccc5Cl)C4)ccc32)CC1` (single isomer, unassigned) [Compound 1b, 1-(5-(1-(2,6-dichlorophenyl)azetidin-3-yl)-2,3-dihydro-1H-inden-1-yl)piperidine-4-carboxylic acid], with 100 to 1000 nM. The result for `O=C(O)C1CCN(C2CCc3cc(C4CN(c5c(F)cccc5F)C4)ccc32)CC1` (single isomer, unassigned) [Compound 2a, 1-(5-(1-(2,6-difluorophenyl)azetidin-3-yl)-2,3-dihydro-1H-inden-1-yl)-piperidine-4-carboxylic acid] reads 10 to 100 nM. Then `O=C(O)C1CCN(C2CCc3cc(C4CN(c5c(F)cccc5F)C4)ccc32)CC1` (single isomer, unassigned) [Compound 2b, 1-(5-(1-(2,6-difluorophenyl)azetidin-3-yl)-2,3-dihydro-1H-inden-1-yl)-piperidine-4-carboxylic acid], with 1000 to 10000 nM.

On to `O=C(O)C1CCN(C2CCc3cc(C4CN(c5cccc(F)c5)C4)ccc32)CC1` (single isomer, unassigned) [Compound 3a, 1-(5-(1-(3-fluorophenyl)azetidin-3-yl)-2,3-dihydro-1H-inden-1-yl)piperidine-4-carboxylic acid], for which the EC50 fell in the range of 100 to 1000 nM. Regarding `O=C(O)C1CCN(C2CCc3cc(C4CN(c5cccc(F)c5)C4)ccc32)CC1` (single isomer, unassigned) [Compound 3b, 1-(5-(1-(3-fluorophenyl)azetidin-3-yl)-2,3-dihydro-1H-inden-1-yl)piperidine-4-carboxylic acid], the EC50 is 1000 to 10000 nM. Then `O=C(O)C1CCN(C2CCc3cc(C4CN(c5ccccc5F)C4)ccc32)CC1` (single isomer, unassigned) [Compound 4a, 1-(5-(1-(2-fluorophenyl)azetidin-3-yl)-2,3-dihydro-1H-inden-1-yl)piperidine-4-carboxylic acid], with 10 to 100 nM. The result for `O=C(O)C1CCN(C2CCc3cc(C4CN(c5ccccc5F)C4)ccc32)CC1` (single isomer, unassigned) [Compound 4b, 1-(5-(1-(2-fluorophenyl)azetidin-3-yl)-2,3-dihydro-1H-inden-1-yl)piperidine-4-carboxylic acid] reads 1000 to 10000 nM. On to `O=C(O)C1CN(C2CCc3cc(C4CN(c5cccc(F)c5)C4)ccc32)C1` (single isomer, unassigned) [Compound 8a, 1-(5-(1-(3-fluorophenyl)azetidin-3-yl)-2,3-dihydro-1H-inden-1-yl)azetidine-3-carboxylic acid], for which the EC50 is 1000 to 10000 nM. Take `O=C(O)C1CN(C2CCc3cc(C4CN(c5cccc(F)c5)C4)ccc32)C1` (single isomer, unassigned) [Compound 8b, 1-(5-(1-(3-fluorophenyl)azetidin-3-yl)-2,3-dihydro-1H-inden-1-yl)azetidine-3-carboxylic acid]: the EC50 lay in the range of 100 to 1000 nM. The result for `O=C(O)C1CCN(C2CCc3cc(N4CC(c5c(F)cccc5F)C4)ccc32)CC1` (single isomer, unassigned) [Compound 9a, 1-(5-(3-(2,6-difluorophenyl)azetidin-1-yl)-2,3-dihydro-1H-inden-1-yl)piperidine-4-carboxylic acid] reads at most 10 nM; that for `O=C(O)C1CCN(C2CCc3cc(N4CC(c5c(F)cccc5F)C4)ccc32)CC1` (single isomer, unassigned) [Compound 9b, 1-(5-(3-(2,6-difluorophenyl)azetidin-1-yl)-2,3-dihydro-1H-inden-1-yl)piperidine-4-carboxylic acid], 100 to 1000 nM. The result for `O=C(O)C1CCN(C2CCc3cc(N4CC(c5ccccc5F)C4)ccc32)CC1` (single isomer, unassigned) [Compound 10a, 1-(5-(3-(2-fluorophenyl)azetidin-1-yl)-2,3-dihydro-1H-inden-1-yl)piperidine-4-carboxylic acid] reads 10 to 100 nM; that for `O=C(O)C1CCN(C2CCc3cc(N4CC(c5ccccc5F)C4)ccc32)CC1` (single isomer, unassigned) [Compound 10b, 1-(5-(3-(2-fluorophenyl)azetidin-1-yl)-2,3-dihydro-1H-inden-1-yl)piperidine-4-carboxylic acid], 1000 to 10000 nM; that for `Cc1cc(C2CN(c3c(Cl)cccc3Cl)C2)ccc1C(C)N1CCC(C(=O)O)CC1` (single isomer, unassigned) [Compound 16a, 1-(1-(4-(1-(2,6-dichlorophenyl)azetidin-3-yl)-2-methylphenyl)ethyl)piperidine-4-carboxylic acid], 10 to 100 nM. Consider `Cc1cc(C2CN(c3c(Cl)cccc3Cl)C2)ccc1C(C)N1CCC(C(=O)O)CC1` (single isomer, unassigned) [Compound 16b, 1-(1-(4-(1-(2,6-dichlorophenyl)azetidin-3-yl)-2-methylphenyl)-ethyl)piperidine-4-carboxylic acid], for which the EC50 is at most 10 nM. Then `O=C(O)C1CCN(C2CCc3cc(C4CN(c5c(Cl)cccc5Cl)C4)ccc32)C1` (centres unmarked) [Compound 7, 1-(5-(1-(2,6-dichlorophenyl)azetidin-3-yl)-2,3-dihydro-1H-inden-1-yl)pyrrolidine-3-carboxylic acid], with at most 10 nM.

As for `O=C(O)C1CCN(Cc2ccc(C3CN(c4c(Cl)cccc4Cl)C3)cc2)CC1` [Compound 11, 1-(4-(1-(2,6-dichlorophenyl)azetidin-3-yl)benzyl)piperidine-4-carboxylic acid], the EC50 fell in the range of 10 to 100 nM. For `O=C(O)[C@H]1CCN(Cc2ccc(C3CN(c4c(Cl)cccc4Cl)C3)cc2)C1` [Compound 12a, (S)-1-(4-(1-(2,6-dichlorophenyl)azetidin-3-yl)benzyl)pyrrolidine-3-carboxylic acid], the EC50 lay within 10 to 100 nM. The result for `O=C(O)[C@@H]1CCN(Cc2ccc(C3CN(c4c(Cl)cccc4Cl)C3)cc2)C1` [Compound 12b, (R)-1-(4-(1-(2,6-dichlorophenyl)azetidin-3-yl)benzyl)pyrrolidine-3-carboxylic acid] reads at most 10 nM. The result for `O=C(O)C1CN(Cc2ccc(C3CN(c4c(Cl)cccc4Cl)C3)cc2)C1` [Compound 13, 1-(4-(1-(2,6-dichlorophenyl)azetidin-3-yl)benzyl)azetidine-3-carboxylic acid] reads at most 10 nM; that for `O=C(O)C1CCN(Cc2ccc(C3CN(c4c(F)cccc4F)C3)cc2)CC1` [Compound 14, 1-(4-(1-(2,6-difluorophenyl)azetidin-3-yl)benzyl)piperidine-4-carboxylic acid], 100 to 1000 nM; that for `Cc1cc(C2CN(c3c(Cl)cccc3Cl)C2)cc(C)c1CN1CCC(C(=O)O)CC1` [Compound 15, 1-(4-(1-(2,6-dichlorophenyl)azetidin-3-yl)-2,6-dimethylbenzyl)piperidine-4-carboxylic acid], at most 10 nM. Then `CC(C)(c1ccc(C2CN(c3c(Cl)cccc3Cl)C2)cc1)N1CCC(C(=O)O)CC1` [Compound 17, 1-(2-(4-(1-(2,6-dichlorophenyl)azetidin-3-yl)phenyl)propan-2-yl)piperidine-4-carboxylic acid], with at most 10 nM.
